Data on 7 molecules can be found in ChEMBL document CHEMBL3044888, “Fungicidal activity of indole derivatives against some plant pathogenic fungi” (J Pestic Sci, 2010).

Common to all, as to assay type: functional, organism-based
Test [1] relates to Globisporangium debaryanum. Nature of the test: Fungicidal activity against Pythium debaryanum assessed as inhibition of hyphal growth by radial growth test.
The subject of another test is Rhizoctonia solani. Nature of the test: Fungicidal activity against Rhizoctonia solani assessed as inhibition of hyphal growth by radial growth test.
In the next test the test system is Fusarium culmorum. Nature of the test: Fungicidal activity against Fusarium culmorum assessed as inhibition of hyphal growth by radial growth test.
Another test has as its system Macrophomina phaseolina. In words: Fungicidal activity against Macrophomina phaseoli assessed as inhibition of hyphal growth by radial growth test.

Each structure is given as a SMILES string. Values after ≈ are worked out from the molar mass of the structure shown.

As to `O=C(O)CCCc1c[nH]c2ccccc12`, the IC50 (in general, the concentration that inhibits the measured activity by half) came to 249 µg/mL (≈ 1230 µM) in test [1], 644 µg/mL (≈ 3170 µM) with Rhizoctonia solani, 576 µg/mL (≈ 2830 µM) in the test on Fusarium culmorum and 699 µg/mL (≈ 3440 µM) in the test on Macrophomina phaseolina.

As for `COCC(=O)N(c1c(C)cccc1C)C(C)C(=O)OC` (stereo not drawn) [METALAXYL], the IC50 in test [1] was 211 µg/mL (≈ 755 µM); in the test with Rhizoctonia solani it was 231 µg/mL (≈ 827 µM); in the test with Fusarium culmorum it was 192 µg/mL (≈ 687 µM); in the test on Macrophomina phaseolina, 173 µg/mL (≈ 619 µM).

Consider `CC(=O)n1cc(CCCC(=O)O)c2ccccc21`, for which the IC50 in test [1] was found to be 19 µg/mL (≈ 77.5 µM); in the test with Rhizoctonia solani it was 117 µg/mL (≈ 477 µM); in the test on Fusarium culmorum, 26.6 µg/mL (≈ 108 µM); in the test with Macrophomina phaseolina it was 59 µg/mL (≈ 241 µM).

With `O=C(O)Cc1cn(C(=O)c2ccccc2)c2ccccc12`, the IC50 in test [1] stood at 171 µg/mL (≈ 612 µM); in the test with Rhizoctonia solani, 1240 µg/mL (≈ 4450 µM); with Fusarium culmorum it was 523 µg/mL (≈ 1870 µM); in the test on Macrophomina phaseolina, 572 µg/mL (≈ 2050 µM).

Consider `O=C(c1ccccc1)n1c(-c2ccccc2)cc2ccccc21`, for which the 50% inhibitory concentration (IC50) in test [1] is 81 µg/mL (≈ 272 µM); in the test on Rhizoctonia solani, 122 µg/mL (≈ 411 µM); in the test with Fusarium culmorum, 99.9 µg/mL (≈ 336 µM); with Macrophomina phaseolina, 355 µg/mL (≈ 1190 µM).

For the molecule `O=C(O)Cc1c[nH]c2ccccc12` [INDOLE-3-ACETIC ACID], the IC50 was 301 µg/mL (≈ 1720 µM) in test [1], 1010 µg/mL (≈ 5760 µM) in the test on Rhizoctonia solani, 420 µg/mL (≈ 2400 µM) in the test on Fusarium culmorum and 807 µg/mL (≈ 4610 µM) in the test on Macrophomina phaseolina.

As for `O=C(O)CCCc1cn(C(=O)c2ccccc2)c2ccccc12`, the IC50 is 488 µg/mL (≈ 1590 µM) in test [1], 663 µg/mL (≈ 2160 µM) in the test with Rhizoctonia solani, 513 µg/mL (≈ 1670 µM) in the test on Fusarium culmorum and 448 µg/mL (≈ 1460 µM) in the test with Macrophomina phaseolina.
